Measurements reported in ChEMBL document CHEMBL1201862, “PubChem BioAssay data set” (2004).
The source made the active and inactive calls.

Assays:
[1] = target: T1, Dual specificity protein phosphatase 6 (Rattus norvegicus, UniProt Q64346); format: functional
T1 sequence (Q64346 whole entry): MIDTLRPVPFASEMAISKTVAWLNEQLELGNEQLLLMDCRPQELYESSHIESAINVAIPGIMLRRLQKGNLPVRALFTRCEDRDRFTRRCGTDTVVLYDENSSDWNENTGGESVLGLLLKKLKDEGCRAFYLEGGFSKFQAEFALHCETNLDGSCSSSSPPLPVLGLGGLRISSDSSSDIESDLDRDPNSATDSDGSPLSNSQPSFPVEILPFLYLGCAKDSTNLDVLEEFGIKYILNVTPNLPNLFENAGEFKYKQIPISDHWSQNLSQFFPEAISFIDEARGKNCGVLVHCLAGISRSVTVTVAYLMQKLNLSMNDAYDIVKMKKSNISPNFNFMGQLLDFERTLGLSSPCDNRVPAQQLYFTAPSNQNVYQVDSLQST

[2] = target: T2, Tyrosine-protein phosphatase non-receptor type 7 (Homo sapiens, UniProt P35236); format: functional
T2 sequence (P35236 whole entry): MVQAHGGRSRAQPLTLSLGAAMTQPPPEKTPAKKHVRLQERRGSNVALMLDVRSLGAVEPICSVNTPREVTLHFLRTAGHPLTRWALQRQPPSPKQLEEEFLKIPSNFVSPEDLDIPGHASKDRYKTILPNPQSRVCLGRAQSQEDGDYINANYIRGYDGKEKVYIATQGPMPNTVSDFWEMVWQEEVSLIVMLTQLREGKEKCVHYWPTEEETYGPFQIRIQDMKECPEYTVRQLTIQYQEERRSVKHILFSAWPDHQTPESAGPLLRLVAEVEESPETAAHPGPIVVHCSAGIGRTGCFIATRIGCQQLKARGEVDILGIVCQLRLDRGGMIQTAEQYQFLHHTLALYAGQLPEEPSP

[3] = target: T1, Dual specificity protein phosphatase 6
[4] = target: Glyceraldehyde-3-phosphate dehydrogenase (Homo sapiens, UniProt P04406)
[5] = target: Melanin-concentrating hormone receptor 1 (Homo sapiens, UniProt Q99705); test: Late-stage fluorescence-based counterscreen for antagonists of the G-protein coupled receptor 7 (GPR7): cell-based dose response assay to identify antagonists of the melanin-concentrating hormone receptor 1 (MCHR1). [Related pubchem assays (depositor defined):AID1861, AID1880, AID1952, AID2148, AID2251, AID2257, AID485339]; format: functional;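 note: stimulated with 30 nM MCH peptide agonist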
HT-1080 = test: cytotoxicity in HT1080 fibrosarcoma cells, cell-based, fluorescence readout (AID 620); format: functional; conditions: Homo sapiens
[6] = target: Luciferin 4-monooxygenase (Photinus pyralis, UniProt P08659); test: Counter Screen for Luciferase-based Assay Positives. [Related pubchem assays: 620, 618, 411 ]
[7] = target: T3, Ubiquitin-conjugating enzyme E2 N (Homo sapiens, UniProt P61088); format: functional;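 note: Dose-response confirmation in a TR-FRET assay detecting UBC13-driven polyubiquitin chain formation, inhibition measured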
T3 sequence (P61088 whole entry): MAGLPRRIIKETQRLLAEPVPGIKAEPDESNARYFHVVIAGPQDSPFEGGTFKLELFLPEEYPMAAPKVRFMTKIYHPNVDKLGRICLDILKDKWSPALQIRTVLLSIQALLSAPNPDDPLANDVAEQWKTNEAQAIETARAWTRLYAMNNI

Vero = test: host cell cytotoxicity of antiviral hits, dose response, cytotoxicity control for West Nile virus antiviral project, secondary assay (AID 1650); format: functional; conditions: Chlorocebus sabaeus
[8] = target: Eukaryotic translation initiation factor 4H (Homo sapiens, UniProt Q15056); test: human eIF4H binding inhibitors, primary screen, translation initiation inhibitor project, biochemical, uHTS, fluorescence polarization (AID 2012)
[9] = target: Polyadenylate-binding protein 1 (Homo sapiens, UniProt P11940); test: PABP poly(A) RNA binding inhibitors, primary screen, biochemical, fluorescence polarization, uHTS (AID 2014)
Estrogen receptor = target: T4, Estrogen receptor (Homo sapiens, UniProt P03372);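 note: potency for inhibiting coactivator peptide recruitment to the receptor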
T4 sequence (P03372 whole entry): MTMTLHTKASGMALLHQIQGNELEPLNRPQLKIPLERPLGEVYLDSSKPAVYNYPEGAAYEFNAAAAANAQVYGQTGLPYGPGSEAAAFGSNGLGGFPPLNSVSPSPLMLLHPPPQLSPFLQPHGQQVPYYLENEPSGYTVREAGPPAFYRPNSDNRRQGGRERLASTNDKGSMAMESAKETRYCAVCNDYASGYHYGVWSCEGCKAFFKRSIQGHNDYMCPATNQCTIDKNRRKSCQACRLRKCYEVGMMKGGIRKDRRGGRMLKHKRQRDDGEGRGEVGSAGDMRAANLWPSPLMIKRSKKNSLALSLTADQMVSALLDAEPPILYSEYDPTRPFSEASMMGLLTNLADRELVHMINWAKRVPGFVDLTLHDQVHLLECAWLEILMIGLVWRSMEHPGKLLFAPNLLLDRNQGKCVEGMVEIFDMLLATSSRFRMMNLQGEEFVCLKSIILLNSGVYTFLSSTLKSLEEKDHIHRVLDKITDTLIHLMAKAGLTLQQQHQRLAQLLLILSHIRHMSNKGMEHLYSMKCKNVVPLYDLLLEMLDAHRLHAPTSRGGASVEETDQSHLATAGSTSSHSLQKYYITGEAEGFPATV

[10] = target: T5, Epstein-Barr nuclear antigen 1 (Epstein-Barr virus (strain B95-8) (HHV-4) (Human herpesvirus 4), UniProt P03211); test: EBNA-1 inhibitors, dose response, biochemical, fluorescence polarization, 1536-well (AID 2381); set-up: species or system human gammaherpesvirus 4;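 note: fluorescence polarization of a Cy5 DNA probe bound by EBNA-1 protein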
T5 sequence (P03211 whole entry): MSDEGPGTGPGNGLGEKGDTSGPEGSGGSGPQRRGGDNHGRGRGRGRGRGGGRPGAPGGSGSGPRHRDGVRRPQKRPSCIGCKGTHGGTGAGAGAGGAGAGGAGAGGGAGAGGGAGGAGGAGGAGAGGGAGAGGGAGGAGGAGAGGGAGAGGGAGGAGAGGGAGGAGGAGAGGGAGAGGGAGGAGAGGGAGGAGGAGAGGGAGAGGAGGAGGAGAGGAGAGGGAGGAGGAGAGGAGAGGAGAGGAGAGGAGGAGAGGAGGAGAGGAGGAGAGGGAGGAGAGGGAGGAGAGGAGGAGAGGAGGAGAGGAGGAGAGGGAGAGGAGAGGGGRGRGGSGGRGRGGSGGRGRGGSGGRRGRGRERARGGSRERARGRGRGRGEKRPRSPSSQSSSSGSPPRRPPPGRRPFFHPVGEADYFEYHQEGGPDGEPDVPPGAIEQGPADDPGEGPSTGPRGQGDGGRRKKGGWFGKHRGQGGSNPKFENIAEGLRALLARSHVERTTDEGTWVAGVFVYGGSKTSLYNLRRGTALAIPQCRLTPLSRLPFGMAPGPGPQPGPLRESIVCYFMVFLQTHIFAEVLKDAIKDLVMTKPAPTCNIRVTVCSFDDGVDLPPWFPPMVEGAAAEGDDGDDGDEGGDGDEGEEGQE

[11] = target: T6, Lytic switch protein BZLF1 (Epstein-Barr virus (strain B95-8) (HHV-4) (Human herpesvirus 4), UniProt P03206); test: EBV ZTA inhibitors, dose response, counter-screen for EBNA-1 inhibitor project, biochemical, fluorescence polarization, Epstein-Barr virus, 1536-well (AID 2377); set-up: species or system human gammaherpesvirus 4;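 note: fluorescence polarization of Cy5-labelled ZRE DNA probe bound by purified Zta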
T6 sequence (P03206 whole entry): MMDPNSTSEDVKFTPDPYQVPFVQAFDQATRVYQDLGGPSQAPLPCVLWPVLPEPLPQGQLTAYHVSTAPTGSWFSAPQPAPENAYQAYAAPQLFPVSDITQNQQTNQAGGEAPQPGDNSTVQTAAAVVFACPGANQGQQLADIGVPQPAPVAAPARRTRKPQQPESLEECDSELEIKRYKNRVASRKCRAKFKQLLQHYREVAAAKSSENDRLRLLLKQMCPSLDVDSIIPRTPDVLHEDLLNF

Chain of Polyadenylate-binding protein 1 (P11940 whole entry): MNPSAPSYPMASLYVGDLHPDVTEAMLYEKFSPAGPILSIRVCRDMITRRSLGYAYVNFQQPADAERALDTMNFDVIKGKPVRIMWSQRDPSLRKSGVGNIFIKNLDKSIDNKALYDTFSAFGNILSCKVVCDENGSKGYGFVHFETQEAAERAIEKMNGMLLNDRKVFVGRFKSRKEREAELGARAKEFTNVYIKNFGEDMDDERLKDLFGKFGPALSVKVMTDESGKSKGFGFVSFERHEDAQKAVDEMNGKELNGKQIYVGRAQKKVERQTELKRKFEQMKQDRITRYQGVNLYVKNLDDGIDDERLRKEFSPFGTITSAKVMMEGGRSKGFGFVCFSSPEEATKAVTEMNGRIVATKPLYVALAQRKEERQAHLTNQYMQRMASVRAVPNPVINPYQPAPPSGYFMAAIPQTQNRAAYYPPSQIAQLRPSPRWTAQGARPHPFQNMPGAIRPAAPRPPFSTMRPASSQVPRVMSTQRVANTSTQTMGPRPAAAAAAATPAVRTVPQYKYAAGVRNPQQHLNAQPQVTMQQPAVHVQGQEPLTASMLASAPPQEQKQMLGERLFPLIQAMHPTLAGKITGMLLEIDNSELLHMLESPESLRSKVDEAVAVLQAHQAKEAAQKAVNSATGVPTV
Chain of Melanin-concentrating hormone receptor 1 (Q99705 whole entry): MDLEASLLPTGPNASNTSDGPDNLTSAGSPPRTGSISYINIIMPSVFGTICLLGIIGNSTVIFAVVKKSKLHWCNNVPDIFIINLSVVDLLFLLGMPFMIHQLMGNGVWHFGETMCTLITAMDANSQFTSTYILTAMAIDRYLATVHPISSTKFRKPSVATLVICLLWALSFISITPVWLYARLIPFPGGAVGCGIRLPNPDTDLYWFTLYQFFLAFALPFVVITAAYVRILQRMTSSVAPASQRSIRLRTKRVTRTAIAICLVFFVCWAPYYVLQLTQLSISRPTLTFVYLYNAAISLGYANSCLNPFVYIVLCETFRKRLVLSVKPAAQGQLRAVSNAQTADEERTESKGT
Chain of Luciferin 4-monooxygenase (P08659 whole entry): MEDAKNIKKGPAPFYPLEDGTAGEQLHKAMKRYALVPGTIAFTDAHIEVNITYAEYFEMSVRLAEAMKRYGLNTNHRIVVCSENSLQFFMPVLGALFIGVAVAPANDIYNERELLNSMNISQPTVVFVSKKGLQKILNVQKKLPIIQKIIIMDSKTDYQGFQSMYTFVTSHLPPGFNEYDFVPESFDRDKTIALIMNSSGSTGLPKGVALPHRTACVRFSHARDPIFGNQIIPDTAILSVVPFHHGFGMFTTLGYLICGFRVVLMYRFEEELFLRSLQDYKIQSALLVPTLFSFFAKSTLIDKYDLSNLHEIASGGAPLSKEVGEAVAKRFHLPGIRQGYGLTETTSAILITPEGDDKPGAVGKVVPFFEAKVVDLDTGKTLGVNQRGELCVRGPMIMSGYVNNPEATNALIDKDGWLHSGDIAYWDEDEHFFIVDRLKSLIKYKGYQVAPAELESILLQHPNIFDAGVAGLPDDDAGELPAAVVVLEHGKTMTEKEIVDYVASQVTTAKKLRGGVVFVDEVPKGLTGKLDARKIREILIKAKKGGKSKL
Chain of Glyceraldehyde-3-phosphate dehydrogenase (P04406 whole entry): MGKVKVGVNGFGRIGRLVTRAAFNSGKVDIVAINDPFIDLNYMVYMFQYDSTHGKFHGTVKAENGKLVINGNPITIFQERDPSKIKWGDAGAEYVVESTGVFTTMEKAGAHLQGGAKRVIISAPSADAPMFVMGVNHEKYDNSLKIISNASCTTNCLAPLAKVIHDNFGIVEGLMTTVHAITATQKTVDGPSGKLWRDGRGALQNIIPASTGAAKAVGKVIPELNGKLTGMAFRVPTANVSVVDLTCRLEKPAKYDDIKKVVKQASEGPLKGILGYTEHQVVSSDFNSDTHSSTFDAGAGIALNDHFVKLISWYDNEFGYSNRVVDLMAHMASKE

For O=C(O)C1Nc2c(cccc2S(=O)(=O)c2ccccc2)C2C=CCC12 (stereo not drawn), the IC50 [1] was 58.7 µM (active), the IC50 [2] was 11 µM (active) and the IC50 [3] was 52.2 µM (active). The IC50 [4] was 56.4 µM (active).

With COc1ccc(Oc2c(-c3ccco3)cnn(-c3ccc(C)cc3)c2=O)cc1 the IC50 [5] was 13.5 µM (inactive).

With COc1ccc(-n2ncc3c(NC(C)C)ncnc32)cc1 the EC50 (HT-1080) was > 50 µM (not active) and the EC50 [6] was < 0.2 µM (active).

CC1CC(C)CN(CCCNC(=O)C2CCN(c3ncnc4c3sc3cccc(F)c34)CC2)C1 (stereo not drawn) was tested, and the IC50 [7] was > 20 µM (inactive) and the CC50 (Vero) was > 100 µM (active).

Cc1ccc(C(=O)OCC(=O)NC2CCCCC2)o1 was tested, and the IC50 [8] was 51 µM (active) and the IC50 [9] was 63 µM (active).

CCN=c1ccc(Br)cc(C(=O)/C=C/c2ccccc2Cl)c1O was tested, and the IC50 (Estrogen receptor) was 3.11 µM (active).

For C/C(=N\NC(=O)c1c(Br)cnn1C)c1ccc(NC(=O)c2ccc(F)cc2)cc1, the IC50 [10] was 3.62 µM (active) and the IC50 [11] was > 111 µM (not active).

In the case of Cc1ccccc1SCC(=O)N1CCN(c2ccc(C(F)(F)F)cn2)CC1, the IC50 [8] is reported as > 100 µM (inactive) and the IC50 [9] is reported as > 100 µM (inactive).

For O=c1[nH]c(CN2CCN(S(=O)(=O)c3ccc4ccccc4c3)CC2)nc2ccccc12, the IC50 [10] was 5.56 µM (active) and the IC50 [11] was > 111 µM (not active).
